# Data: patent US20240382629A1, “HETEROBIVALENT AND HOMOBIVALENT AGENTS TARGETING FIBROBLAST ACTIVATION PROTEIN ALPHA AND/OR PROSTATE-SPECIFIC MEMBRANE ANTIGEN” (The Johns Hopkins University, priority 2021, published 2024)
# Where “and” joins values, the source holds several entries; their conditions need not be identical. Equal values may be shown once.
# Test: Biodistribution of representative compounds ([^18F]Sri-07-56, [^18F]Sri-07-52, [^18F]JHU1221823, [^18F]FAPI-74), tissue % ID/g with carrier or blocker
# Format: in vivo, mouse
# Settings: for Bladder % ID/g / Blood % ID/g / Brain % ID/g / Fat % ID/g / Femur % ID/g / Heart % ID/g / Kidney % ID/g / Large intestine % ID/g / Liver % ID/g / Lung % ID/g / Muscle % ID/g / Pancreas % ID/g / Salivery gland % ID/g / Small intestine % ID/g / Spleen % ID/g / Stomach % ID/g / Tumor % ID/g: individual mice
# Source text: Biodistribution of Representative Compounds
compound,measurement,setting,value
N#CC1CCCN1C(=O)CNC(=O)c1ccnc2ccc(OCCCNC(=O)CCc3cn(CCC(NC(=O)c4ccc([18F])nc4)C(=O)NCCCCC(NC(=O)NC(CC(=O)O)C(=O)O)C(=O)O)nn3)cc12 (stereo not drawn) [[18F]Sri-07-52],Bladder % ID/g Mean,"60 min, 20 μCi per mouse",1.75 % ID/g
same,Blood % ID/g Mean,"60 min, 20 μCi per mouse",2.39 % ID/g
same,Brain % ID/g Mean,"60 min, 20 μCi per mouse",0.09 % ID/g
same,Fat % ID/g Mean,"60 min, 20 μCi per mouse",0.41 % ID/g
same,Femur % ID/g Mean,"60 min, 20 μCi per mouse",2.10 % ID/g
same,Heart % ID/g Mean,"60 min, 20 μCi per mouse",1.39 % ID/g
same,Kidney % ID/g Mean,"60 min, 20 μCi per mouse",1.21 % ID/g
same,Large intestine % ID/g Mean,"60 min, 20 μCi per mouse",1.16 % ID/g
same,Liver % ID/g Mean,"60 min, 20 μCi per mouse",1.07 % ID/g
same,Lung % ID/g Mean,"60 min, 20 μCi per mouse",1.46 % ID/g
same,Muscle % ID/g Mean,"60 min, 20 μCi per mouse",1.40 % ID/g
same,Pancreas % ID/g Mean,"60 min, 20 μCi per mouse",3.30 % ID/g
same,Salivary gland % ID/g Mean,"60 min, 20 μCi per mouse",5.13 % ID/g
same,Small intestine % ID/g Mean,"60 min, 20 μCi per mouse",1.57 % ID/g
same,Spleen % ID/g Mean,"60 min, 20 μCi per mouse",0.74 % ID/g
same,Stomach % ID/g Mean,"60 min, 20 μCi per mouse",0.68 % ID/g
same,Tumor % ID/g Mean,"60 min, 20 μCi per mouse",2.27 % ID/g
same,Bladder % ID/g,"60 min, 20 μCi per mouse",1.90 % ID/g and 1.61 % ID/g
same,Blood % ID/g,"60 min, 20 μCi per mouse",2.58 % ID/g and 2.21 % ID/g
same,Brain % ID/g,"60 min, 20 μCi per mouse",0.08 % ID/g and 0.11 % ID/g
same,Fat % ID/g,"60 min, 20 μCi per mouse",0.53 % ID/g and 0.29 % ID/g
same,Femur % ID/g,"60 min, 20 μCi per mouse",1.91 % ID/g and 2.29 % ID/g
same,Heart % ID/g,"60 min, 20 μCi per mouse",1.36 % ID/g and 1.42 % ID/g
same,Kidney % ID/g,"60 min, 20 μCi per mouse",1.18 % ID/g and 1.23 % ID/g
same,Large intestine % ID/g,"60 min, 20 μCi per mouse",1.11 % ID/g and 1.21 % ID/g
same,Liver % ID/g,"60 min, 20 μCi per mouse",1.11 % ID/g and 1.04 % ID/g
same,Lung % ID/g,"60 min, 20 μCi per mouse",1.60 % ID/g and 1.32 % ID/g
same,Muscle % ID/g,"60 min, 20 μCi per mouse",1.43 % ID/g and 1.38 % ID/g
same,Pancreas % ID/g,"60 min, 20 μCi per mouse",3.34 % ID/g and 3.27 % ID/g
same,Salivery gland % ID/g,"60 min, 20 μCi per mouse",4.35 % ID/g and 5.90 % ID/g
same,Small intestine % ID/g,"60 min, 20 μCi per mouse",1.56 % ID/g and 1.57 % ID/g
same,Spleen % ID/g,"60 min, 20 μCi per mouse",0.72 % ID/g and 0.77 % ID/g
same,Stomach % ID/g,"60 min, 20 μCi per mouse",0.66 % ID/g and 0.69 % ID/g
same,Tumor % ID/g,"60 min, 20 μCi per mouse",2.44 % ID/g and 2.10 % ID/g
N#CC1CCCN1C(=O)CNC(=O)c1ccnc2ccc(OCCCNC(=O)CCc3cn(CCC(NC(=O)c4ccc([18F])nc4)C(=O)NCCCCC(NC(=O)NC(CC(=O)O)C(=O)O)C(=O)O)nn3)cc12 (stereo not drawn) [[^18F]Sri-07-52],Bladder % ID/g Mean,"30 min, ~100 μCi per mouse",1.98 % ID/g
same,Blood % ID/g Mean,"30 min, ~100 μCi per mouse",10.03 % ID/g
same,Brain % ID/g Mean,"30 min, ~100 μCi per mouse",0.21 % ID/g
same,Fat % ID/g Mean,"30 min, ~100 μCi per mouse",0.50 % ID/g
same,Femur % ID/g Mean,"30 min, ~100 μCi per mouse",2.53 % ID/g
same,Heart % ID/g Mean,"30 min, ~100 μCi per mouse",4.58 % ID/g
same,Kidney % ID/g Mean,"30 min, ~100 μCi per mouse",2.71 % ID/g
same,Large intestine % ID/g Mean,"30 min, ~100 μCi per mouse",3.78 % ID/g
same,Liver % ID/g Mean,"30 min, ~100 μCi per mouse",3.20 % ID/g
same,Lung % ID/g Mean,"30 min, ~100 μCi per mouse",6.18 % ID/g
same,Muscle % ID/g Mean,"30 min, ~100 μCi per mouse",2.09 % ID/g
same,Pancreas % ID/g Mean,"30 min, ~100 μCi per mouse",5.86 % ID/g
same,Salivary gland % ID/g Mean,"30 min, ~100 μCi per mouse",13.84 % ID/g
same,Small intestine % ID/g Mean,"30 min, ~100 μCi per mouse",4.36 % ID/g
same,Spleen % ID/g Mean,"30 min, ~100 μCi per mouse",2.03 % ID/g
same,Stomach % ID/g Mean,"30 min, ~100 μCi per mouse",1.71 % ID/g
same,Tumor % ID/g Mean,"30 min, ~100 μCi per mouse",4.99 % ID/g
same,Bladder % ID/g,"30 min, ~100 μCi per mouse",1.47 % ID/g and 2.50 % ID/g
same,Blood % ID/g,"30 min, ~100 μCi per mouse",9.03 % ID/g and 11.04 % ID/g
same,Brain % ID/g,"30 min, ~100 μCi per mouse",0.24 % ID/g and 0.19 % ID/g
same,Fat % ID/g,"30 min, ~100 μCi per mouse",0.36 % ID/g and 0.64 % ID/g
same,Femur % ID/g,"30 min, ~100 μCi per mouse",2.15 % ID/g and 2.91 % ID/g
same,Heart % ID/g,"30 min, ~100 μCi per mouse",4.65 % ID/g and 4.52 % ID/g
same,Kidney % ID/g,"30 min, ~100 μCi per mouse",2.62 % ID/g and 2.80 % ID/g
same,Large intestine % ID/g,"30 min, ~100 μCi per mouse",5.82 % ID/g and 1.74 % ID/g
same,Liver % ID/g,"30 min, ~100 μCi per mouse",3.03 % ID/g and 3.36 % ID/g
same,Lung % ID/g,"30 min, ~100 μCi per mouse",6.53 % ID/g and 5.82 % ID/g
same,Muscle % ID/g,"30 min, ~100 μCi per mouse",2.07 % ID/g and 2.12 % ID/g
same,Pancreas % ID/g,"30 min, ~100 μCi per mouse",6.54 % ID/g and 5.18 % ID/g
same,Salivery gland % ID/g,"30 min, ~100 μCi per mouse",11.28 % ID/g and 16.41 % ID/g
same,Small intestine % ID/g,"30 min, ~100 μCi per mouse",4.18 % ID/g and 4.54 % ID/g
same,Spleen % ID/g,"30 min, ~100 μCi per mouse",2.06 % ID/g and 1.99 % ID/g
same,Stomach % ID/g,"30 min, ~100 μCi per mouse",1.72 % ID/g and 1.71 % ID/g
same,Tumor % ID/g,"30 min, ~100 μCi per mouse",5.57 % ID/g and 4.40 % ID/g
same,Bladder % ID/g Mean,"120 min, 20 μCi per mouse",1.66 % ID/g
same,Blood % ID/g Mean,"120 min, 20 μCi per mouse",5.44 % ID/g
same,Brain % ID/g Mean,"120 min, 20 μCi per mouse",0.22 % ID/g
same,Fat % ID/g Mean,"120 min, 20 μCi per mouse",0.56 % ID/g
same,Femur % ID/g Mean,"120 min, 20 μCi per mouse",2.17 % ID/g
same,Heart % ID/g Mean,"120 min, 20 μCi per mouse",3.20 % ID/g
same,Kidney % ID/g Mean,"120 min, 20 μCi per mouse",2.71 % ID/g
same,Large intestine % ID/g Mean,"120 min, 20 μCi per mouse",1.08 % ID/g
same,Liver % ID/g Mean,"120 min, 20 μCi per mouse",2.33 % ID/g
same,Lung % ID/g Mean,"120 min, 20 μCi per mouse",3.15 % ID/g
same,Muscle % ID/g Mean,"120 min, 20 μCi per mouse",1.53 % ID/g
same,Pancreas % ID/g Mean,"120 min, 20 μCi per mouse",3.98 % ID/g
same,Salivary gland % ID/g Mean,"120 min, 20 μCi per mouse",7.20 % ID/g
same,Small intestine % ID/g Mean,"120 min, 20 μCi per mouse",2.64 % ID/g
same,Spleen % ID/g Mean,"120 min, 20 μCi per mouse",1.51 % ID/g
same,Stomach % ID/g Mean,"120 min, 20 μCi per mouse",1.11 % ID/g
same,Tumor % ID/g Mean,"120 min, 20 μCi per mouse",1.96 % ID/g
same,Bladder % ID/g,"120 min, 20 μCi per mouse",0.97 % ID/g and 2.35 % ID/g
same,Blood % ID/g,"120 min, 20 μCi per mouse",4.70 % ID/g and 6.19 % ID/g
same,Brain % ID/g,"120 min, 20 μCi per mouse",0.32 % ID/g and 0.13 % ID/g
same,Fat % ID/g,"120 min, 20 μCi per mouse",0.74 % ID/g and 0.38 % ID/g
same,Femur % ID/g,"120 min, 20 μCi per mouse",1.99 % ID/g and 2.35 % ID/g
same,Heart % ID/g,"120 min, 20 μCi per mouse",3.20 % ID/g and 3.21 % ID/g
same,Kidney % ID/g,"120 min, 20 μCi per mouse",1.66 % ID/g and 3.77 % ID/g
same,Large intestine % ID/g,"120 min, 20 μCi per mouse",0.85 % ID/g and 1.30 % ID/g
same,Liver % ID/g,"120 min, 20 μCi per mouse",2.28 % ID/g and 2.43 % ID/g
same,Lung % ID/g,"120 min, 20 μCi per mouse",2.65 % ID/g and 3.65 % ID/g
same,Muscle % ID/g,"120 min, 20 μCi per mouse",1.58 % ID/g and 1.47 % ID/g
same,Pancreas % ID/g,"120 min, 20 μCi per mouse",3.00 % ID/g and 4.96 % ID/g
same,Salivery gland % ID/g,"120 min, 20 μCi per mouse",6.20 % ID/g and 8.21 % ID/g
same,Small intestine % ID/g,"120 min, 20 μCi per mouse",2.55 % ID/g and 2.72 % ID/g
same,Spleen % ID/g,"120 min, 20 μCi per mouse",1.54 % ID/g and 1.49 % ID/g
same,Stomach % ID/g,"120 min, 20 μCi per mouse",1.00 % ID/g and 1.23 % ID/g
same,Tumor % ID/g,"120 min, 20 μCi per mouse",1.67 % ID/g and 2.25 % ID/g
